Measured values published in ChEMBL document CHEMBL2440076, “New triarylpyrazoles as broad-spectrum anticancer agents: design, synthesis, and biological evaluation” (Eur J Med Chem, 2013).

Columns and labels:
Format in all cases: functional
[1] = Growth inhibition of human HCC2998 cells assessed as cell growth at 5X10'-5 M after 48 hrs by sulforhodamine B assay; conditions: HCC 2998, 48 h, read-out: Activity
[2] = tested on: NCI-H522; test: Growth inhibition of human NCI-H522 cells assessed as cell growth at 5X10'-5 M after 48 hrs by sulforhodamine B assay; conditions: NCI-H522, 48 h, read-out: Activity
[3] = tested on: HOP-62; test: Growth inhibition of human HOP62 cells assessed as cell growth at 5X10'-5 M after 48 hrs by sulforhodamine B assay; conditions: HOP-62, 48 h, read-out: Activity
[4] = tested on: A549; test: Growth inhibition of human A549/ATCC cells assessed as cell growth at 5X10'-5 M after 48 hrs by sulforhodamine B assay; conditions: A549, 48 h, read-out: Activity
[5] = tested on: CCRF-CEM; test: Growth inhibition of human CCRF-CEM cells assessed as cell growth at 5X10'-5 M after 48 hrs by sulforhodamine B assay; conditions: read-out: Activity
[6] = tested on: NCI-H522; test: Growth inhibition of human NCI-H522 cells assessed as cell growth at 5X10'-9 M after 48 hrs by sulforhodamine B assay; conditions: NCI-H522, 48 h, read-out: Activity
[7] = tested on: NCI-H322M; test: Growth inhibition of human NCI-H322M cells assessed as cell growth at 5X10'-9 M after 48 hrs by sulforhodamine B assay; conditions: read-out: Activity
[8] = tested on: K562; test: Growth inhibition of human K562 cells assessed as cell growth at 5X10'-9 M after 48 hrs by sulforhodamine B assay; conditions: K562, 48 h, read-out: Activity
[9] = tested on: HL-60(TB); test: Growth inhibition of human HL-60(TB) cells assessed as cell growth at 5X10'-9 M after 48 hrs by sulforhodamine B assay; conditions: HL-60, 48 h, read-out: Activity
[10] = tested on: SNB-19; test: Growth inhibition of human SNB19 cells assessed as cell growth at 5X10'-6 M after 48 hrs by sulforhodamine B assay; conditions: SNB-19, 48 h, read-out: Activity
[11] = tested on: NCI-H522; test: Growth inhibition of human NCI-H522 cells assessed as cell growth at 5X10'-6 M after 48 hrs by sulforhodamine B assay; conditions: NCI-H522, 48 h, read-out: Activity
[12] = tested on: HOP-62; test: Growth inhibition of human HOP62 cells assessed as cell growth at 5X10'-6 M after 48 hrs by sulforhodamine B assay; conditions: HOP-62, 48 h, read-out: Activity
[13] = tested on: ACHN; test: Growth inhibition of human ACHN cells assessed as cell growth at 5X10'-7 M after 48 hrs by sulforhodamine B assay; conditions: read-out: Activity
[14] = tested on: A498; test: Growth inhibition of human A498 cells assessed as cell growth at 5X10'-7 M after 48 hrs by sulforhodamine B assay; conditions: A498, 48 h, read-out: Activity
[15] = Growth inhibition of human NCI-ADR-RES cells assessed as cell growth at 5X10'-7 M after 48 hrs by sulforhodamine B assay; conditions: read-out: Activity
[16] = tested on: OVCAR-8; test: Growth inhibition of human OVCAR8 cells assessed as cell growth at 5X10'-7 M after 48 hrs by sulforhodamine B assay; conditions: OVCAR-8, 48 h, read-out: Activity
[17] = tested on: SK-MEL-2; test: Growth inhibition of human SK-MEL-2 cells assessed as cell growth at 5X10'-7 M after 48 hrs by sulforhodamine B assay; conditions: SK-MEL-2, 48 h, read-out: Activity
[18] = tested on: Malme-3M; test: Growth inhibition of human MALME-3M cells assessed as cell growth at 5X10'-7 M after 48 hrs by sulforhodamine B assay; conditions: read-out: Activity
[19] = tested on: KM12; test: Growth inhibition of human KM12 cells assessed as cell growth at 5X10'-7 M after 48 hrs by sulforhodamine B assay; conditions: KM12, 48 h, read-out: Activity
[20] = tested on: NCI-H23; test: Growth inhibition of human NCI-H23 cells assessed as cell growth at 5X10'-7 M after 48 hrs by sulforhodamine B assay; conditions: NCI-H23, 48 h, read-out: Activity
[21] = tested on: K562; test: Growth inhibition of human K562 cells assessed as cell growth at 5X10'-7 M after 48 hrs by sulforhodamine B assay; conditions: K562, 48 h, read-out: Activity
[22] = tested on: CCRF-CEM; test: Growth inhibition of human CCRF-CEM cells assessed as cell growth at 5X10'-7 M after 48 hrs by sulforhodamine B assay; conditions: read-out: Activity
[23] = tested on: MCF7; test: Growth inhibition of human MCF7 cells assessed as cell growth at 5X10'-8 M after 48 hrs by sulforhodamine B assay; conditions: MCF7, 48 h, read-out: Activity
[24] = tested on: DU-145; test: Growth inhibition of human DU145 cells assessed as cell growth at 5X10'-8 M after 48 hrs by sulforhodamine B assay; conditions: DU-145, 48 h, read-out: Activity
[25] = tested on: TK-10; test: Growth inhibition of human TK10 cells assessed as cell growth at 5X10'-8 M after 48 hrs by sulforhodamine B assay; conditions: TK-10, 48 h, read-out: Activity
[26] = tested on: SK-OV-3; test: Growth inhibition of human SKOV3 cells assessed as cell growth at 5X10'-8 M after 48 hrs by sulforhodamine B assay; conditions: SK-OV-3, 48 h, read-out: Activity
[27] = tested on: M14; test: Growth inhibition of human M14 cells assessed as cell growth at 5X10'-8 M after 48 hrs by sulforhodamine B assay; conditions: M14, 48 h, read-out: Activity
[28] = tested on: SNB-75; test: Growth inhibition of human SNB75 cells assessed as cell growth at 5X10'-8 M after 48 hrs by sulforhodamine B assay; conditions: SNB-75, 48 h, read-out: Activity
[29] = tested on: RXF 393; test: Growth inhibition of human RXF393 cells assessed as cell growth at 5X10'-5 M after 48 hrs by sulforhodamine B assay; conditions: RXF 393, 48 h, read-out: Activity
[30] = Growth inhibition of human HCC2998 cells assessed as cell growth at 5X10'-8 M after 48 hrs by sulforhodamine B assay; conditions: HCC 2998, 48 h, read-out: Activity
[31] = tested on: NCI-H322M; test: Growth inhibition of human NCI-H322M cells assessed as cell growth at 5X10'-8 M after 48 hrs by sulforhodamine B assay; conditions: read-out: Activity
[32] = tested on: HOP-92; test: Growth inhibition of human HOP92 cells assessed as cell growth at 5X10'-8 M after 48 hrs by sulforhodamine B assay; conditions: HOP-92, 48 h, read-out: Activity
[33] = tested on: RPMI-8226; test: Growth inhibition of human RPMI8226 cells assessed as cell growth at 5X10'-8 M after 48 hrs by sulforhodamine B assay; conditions: RPMI-8226, 48 h, read-out: Activity
[34] = tested on: BT-549; test: Growth inhibition of human BT549 cells assessed as cell growth at 5X10'-9 M after 48 hrs by sulforhodamine B assay; conditions: BT-549, 48 h, read-out: Activity
[35] = tested on: DU-145; test: Growth inhibition of human DU145 cells assessed as cell growth at 5X10'-9 M after 48 hrs by sulforhodamine B assay; conditions: DU-145, 48 h, read-out: Activity
[36] = tested on: SK-OV-3; test: Growth inhibition of human SKOV3 cells assessed as cell growth at 5X10'-9 M after 48 hrs by sulforhodamine B assay; conditions: SK-OV-3, 48 h, read-out: Activity
[37] = tested on: OVCAR-3; test: Growth inhibition of human OVCAR3 cells assessed as cell growth at 5X10'-9 M after 48 hrs by sulforhodamine B assay; conditions: OVCAR-3, 48 h, read-out: Activity

| SMILES | growth at 50 µM [1] [%] | growth at 50 µM [2] [%] | growth at 50 µM [3] [%] | growth at 50 µM [4] [%] | growth at 50 µM [5] [%] | growth at 0.005 µM [6] [%] | growth at 0.005 µM [7] [%] | growth at 0.005 µM [8] [%] | growth at 0.005 µM [9] [%] | growth at 5 µM [10] [%] | growth at 5 µM [11] [%] | growth at 5 µM [12] [%] | growth at 0.5 µM [13] [%] | growth at 0.5 µM [14] [%] | growth at 0.5 µM [15] [%] | growth at 0.5 µM [16] [%] | growth at 0.5 µM [17] [%] | growth at 0.5 µM [18] [%] | growth at 0.5 µM [19] [%] | growth at 0.5 µM [20] [%] | other results |
| --- | --- | --- | --- | --- | --- | --- | --- | --- | --- | --- | --- | --- | --- | --- | --- | --- | --- | --- | --- | --- | --- |
| COc1cc(-c2nn(-c3cccc(NC(=O)Nc4cc(C(F)(F)F)cc(C(F)(F)F)c4)c3)cc2-c2ccncc2)ccc1Cl | -88 | -65 | -95 | -65 | -8 | 102 | 97 | 99 | 100 | -9 | -48 | -92 | 50 | 59 | 72 | 51 | 105 | 83 | 53 | 85 | growth at 0.5 µM [21]: 42%; growth at 0.5 µM [22]: 50%; growth at 0.05 µM [23]: 91%; growth at 0.05 µM [24]: 111%; growth at 0.05 µM [25]: 98%; growth at 0.05 µM [26]: 103%; growth at 0.05 µM [27]: 107%; growth at 0.05 µM [28]: 90%; growth at 50 µM [29]: -65%; growth at 0.05 µM [30]: 105%; growth at 0.05 µM [31]: 103%; growth at 0.05 µM [32]: 67%; growth at 0.05 µM [33]: 95%; growth at 0.005 µM [34]: 103%; growth at 0.005 µM [35]: 106%; growth at 0.005 µM [36]: 102%; growth at 0.005 µM [37]: 114% |
| O=C(Nc1cccc(-n2cc(-c3ccncc3)c(-c3ccc(Cl)c(O)c3)n2)c1)Nc1cc(C(F)(F)F)cc(C(F)(F)F)c1 | -90 | -82 | -90 | -80 | -18 | 101 | 108 | 105 | 115 | 16 | -28 | -64 | 55 | 64 | 74 | 52 | 101 | 77 | 51 | 80 | growth at 0.5 µM [21]: 46%; growth at 0.5 µM [22]: 62%; growth at 0.05 µM [23]: 85%; growth at 0.05 µM [24]: 109%; growth at 0.05 µM [25]: 107%; growth at 0.05 µM [26]: 102%; growth at 0.05 µM [27]: 104%; growth at 0.05 µM [28]: 86%; growth at 50 µM [29]: -79%; growth at 0.05 µM [30]: 105%; growth at 0.05 µM [31]: 104%; growth at 0.05 µM [32]: 75%; growth at 0.05 µM [33]: 95%; growth at 0.005 µM [34]: 99%; growth at 0.005 µM [35]: 106%; growth at 0.005 µM [36]: 103%; growth at 0.005 µM [37]: 109% |
| COc1cc(-c2nn(-c3cccc(NC(=O)Nc4ccc(Cl)c(Cl)c4)c3)cc2-c2ccncc2)ccc1Cl | -19 | -26 | -9 | 3 | 2 | 101 | 104 | 103 | 111 | 21 | -18 | -1 | 70 | 80 | 72 | 73 | 107 | 82 | 70 | 91 | growth at 0.5 µM [21]: 65%; growth at 0.5 µM [22]: 74%; growth at 0.05 µM [23]: 92%; growth at 0.05 µM [24]: 110%; growth at 0.05 µM [25]: 103%; growth at 0.05 µM [26]: 106%; growth at 0.05 µM [27]: 100%; growth at 0.05 µM [28]: 83%; growth at 50 µM [29]: -43%; growth at 0.05 µM [30]: 100%; growth at 0.05 µM [31]: 102%; growth at 0.05 µM [32]: 64%; growth at 0.05 µM [33]: 92%; growth at 0.005 µM [34]: 104%; growth at 0.005 µM [35]: 103%; growth at 0.005 µM [36]: 104%; growth at 0.005 µM [37]: 104% |
